The source of these data is patent US11339130B1 (Blade Therapeutics, Inc., priority 2016, dated 2022).

Where two headings read alike, the source gives them in different places.

Assay [1] relates to Calpain activity in SH-SY5Y cells. Nature of the assay: SH-SY5Y + AMC fluorescence assay (Suc-LLVY-AMC substrate). The class given is cell-based.
For assay [2], the target named is T1, Human Calpain 2/NS1 (Homo sapiens, UniProt P17655).
T1 sequence (P17655 1-700): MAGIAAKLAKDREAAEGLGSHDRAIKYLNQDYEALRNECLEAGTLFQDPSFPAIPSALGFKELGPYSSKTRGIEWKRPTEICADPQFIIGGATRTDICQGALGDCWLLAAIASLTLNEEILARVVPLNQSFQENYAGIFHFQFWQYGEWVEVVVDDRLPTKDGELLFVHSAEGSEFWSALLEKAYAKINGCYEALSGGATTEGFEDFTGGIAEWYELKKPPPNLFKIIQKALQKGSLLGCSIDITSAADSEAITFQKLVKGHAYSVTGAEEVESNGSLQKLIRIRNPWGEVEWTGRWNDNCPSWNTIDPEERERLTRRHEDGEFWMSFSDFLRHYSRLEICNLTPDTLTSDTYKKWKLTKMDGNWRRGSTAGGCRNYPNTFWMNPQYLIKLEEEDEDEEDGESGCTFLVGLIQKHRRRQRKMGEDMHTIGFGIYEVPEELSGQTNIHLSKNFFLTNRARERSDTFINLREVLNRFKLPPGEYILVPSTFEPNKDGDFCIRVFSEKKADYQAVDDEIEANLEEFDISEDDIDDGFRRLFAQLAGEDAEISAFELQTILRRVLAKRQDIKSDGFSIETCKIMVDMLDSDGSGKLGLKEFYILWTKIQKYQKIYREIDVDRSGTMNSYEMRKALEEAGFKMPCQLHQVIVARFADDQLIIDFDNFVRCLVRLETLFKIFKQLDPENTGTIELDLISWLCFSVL
T1 sequence (P04632 1-268 partner): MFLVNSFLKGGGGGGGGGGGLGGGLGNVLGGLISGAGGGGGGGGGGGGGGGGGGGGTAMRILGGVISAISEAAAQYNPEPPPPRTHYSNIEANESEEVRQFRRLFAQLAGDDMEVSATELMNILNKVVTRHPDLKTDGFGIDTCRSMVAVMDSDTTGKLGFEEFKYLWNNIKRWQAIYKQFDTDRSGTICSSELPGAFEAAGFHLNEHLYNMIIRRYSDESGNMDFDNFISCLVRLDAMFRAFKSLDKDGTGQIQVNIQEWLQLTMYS
As to the kind of experiment: Calpain inhibition continuous fluorescence (FRET) assay, Human Calpain 2/NS1. The format is biochemical. As to conditions: read-out: Human Calpain 2/NS1 IC50. The gist of the method:
(§1)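 Continuous FRET read (ex 490/em 520 nm, 10 min) of calpain 1, 2 or 9 cleaving an internally quenched 5-FAM peptide, triggered by substrate with CaCl2 after enzyme–inhibitor incubation at ambient 25 °C, pH 7.5 Tris/NaCl/DTT buffer. IC50 from initial rates (1-5 min) via 4-parameter fit.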

Assay [3] deals with T2, Human Calpain 9/NS1 (Homo sapiens, UniProt O14815).
T2 sequence (O14815 1-690): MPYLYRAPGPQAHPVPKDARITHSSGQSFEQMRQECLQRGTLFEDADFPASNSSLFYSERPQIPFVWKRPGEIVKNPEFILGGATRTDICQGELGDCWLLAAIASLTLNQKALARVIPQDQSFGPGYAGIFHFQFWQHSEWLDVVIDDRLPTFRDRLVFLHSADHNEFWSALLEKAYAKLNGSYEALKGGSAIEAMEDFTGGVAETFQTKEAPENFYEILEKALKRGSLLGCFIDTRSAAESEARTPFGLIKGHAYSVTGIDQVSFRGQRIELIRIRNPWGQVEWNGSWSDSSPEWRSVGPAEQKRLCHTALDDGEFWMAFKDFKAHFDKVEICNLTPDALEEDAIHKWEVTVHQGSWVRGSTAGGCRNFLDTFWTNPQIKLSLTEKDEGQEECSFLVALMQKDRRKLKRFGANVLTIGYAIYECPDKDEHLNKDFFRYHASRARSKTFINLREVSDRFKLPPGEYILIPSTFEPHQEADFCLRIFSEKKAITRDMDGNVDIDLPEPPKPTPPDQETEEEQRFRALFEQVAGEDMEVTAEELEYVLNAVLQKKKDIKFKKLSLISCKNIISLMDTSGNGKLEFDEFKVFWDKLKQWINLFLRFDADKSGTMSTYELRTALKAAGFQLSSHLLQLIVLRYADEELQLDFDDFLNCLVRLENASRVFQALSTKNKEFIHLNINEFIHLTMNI
T2 sequence (P04632 1-268 partner): T1 sequence (P04632 1-268 partner)
As to the kind of experiment: Calpain inhibition continuous fluorescence (FRET) assay, Human Calpain 9/NS1. The class given is biochemical. As to conditions: read-out: Human Calpain 9/NS1 IC50. A digest of the protocol:
as §1

Assay [4] deals with T3, Human Calpain 1/NS1 (Homo sapiens, UniProt P07384).
T3 sequence (P07384 1-714): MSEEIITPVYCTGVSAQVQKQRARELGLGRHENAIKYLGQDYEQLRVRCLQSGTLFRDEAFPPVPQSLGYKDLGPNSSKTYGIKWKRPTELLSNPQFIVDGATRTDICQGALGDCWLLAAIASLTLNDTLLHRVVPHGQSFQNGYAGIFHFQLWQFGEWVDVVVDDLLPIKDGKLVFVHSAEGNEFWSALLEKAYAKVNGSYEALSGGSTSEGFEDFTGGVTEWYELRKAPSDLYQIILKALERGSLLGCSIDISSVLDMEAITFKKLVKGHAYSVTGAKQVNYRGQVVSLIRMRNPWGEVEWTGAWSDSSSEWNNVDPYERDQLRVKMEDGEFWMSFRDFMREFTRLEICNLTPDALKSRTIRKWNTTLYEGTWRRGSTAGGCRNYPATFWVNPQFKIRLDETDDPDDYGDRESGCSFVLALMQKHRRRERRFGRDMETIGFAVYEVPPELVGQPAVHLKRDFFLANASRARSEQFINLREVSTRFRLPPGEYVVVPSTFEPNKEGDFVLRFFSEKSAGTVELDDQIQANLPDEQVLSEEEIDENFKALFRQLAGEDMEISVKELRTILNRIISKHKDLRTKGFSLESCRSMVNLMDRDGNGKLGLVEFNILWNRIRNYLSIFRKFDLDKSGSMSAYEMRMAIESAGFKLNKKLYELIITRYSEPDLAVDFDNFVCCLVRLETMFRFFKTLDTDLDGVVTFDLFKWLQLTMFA
T3 sequence (P04632 1-268 partner): T1 sequence (P04632 1-268 partner)
Nature of the assay: Calpain inhibition continuous fluorescence (FRET) assay, Human Calpain 1/NS1. The class given is biochemical. As to conditions: read-out: Human Calpain 1/NS1 IC50. The gist of the method:
as §1

Where [5] appears, read: Column E, read-out: SH-SY5Y + AMC IC50.

In the case of `O=C[C@H](Cc1ccccc1)NC(=O)c1scnc1-c1ccccc1` [Compound 6, (S)—N-(1-oxo-3-phenylpropan-2-yl)-4-phenylthiazole-5-carboxamide], the IC50 was more than 25 µM in assay [1] (setting [5]), less than 3 µM in assay [2] (Column B), less than 3 µM in assay [3] (Column C) and less than 3 µM in assay [4] (Column A).
Turning to `O=C[C@H](Cc1ccccc1)NC(=O)c1csnc1-c1ccccc1` [Compound 9, (S)—N-(1-oxo-3-phenylpropan-2-yl)-3-phenylisothiazole-4-carboxamide], the IC50 is 10 to 25 µM in assay [1] (setting [5]), less than 3 µM in assay [2] (Column B), less than 3 µM in assay [3] (Column C) and less than 3 µM in assay [4] (Column A).
`Cc1nc(-c2ccccc2)c(C(=O)N[C@@H](Cc2ccccc2)C(=O)C(N)=O)s1` [Compound 25, (S)—N-(4-amino-3,4-dioxo-1-phenylbutan-2-yl)-2-methyl-4-phenylthiazole-5-carboxamide]: the IC50 in assay [1] (setting [5]) was 10 to 25 µM; in assay [2] (Column B) it was less than 3 µM; in assay [3] (Column C), less than 3 µM; in assay [4] (Column A) it was less than 3 µM.
For `Cc1cc(C(=O)N[C@@H](Cc2ccccc2)C(=O)C(N)=O)n(-c2cccc(C(F)(F)F)n2)n1` [Compound 59], the IC50 in assay [1] (setting [5]) was less than 10 µM; in assay [2] (Column B), less than 3 µM; in assay [3] (Column C), less than 3 µM; in assay [4] (Column A), less than 3 µM.
On to `COC(=O)NCc1cccc(-n2nc(C)cc2C(=O)N[C@@H](Cc2ccccc2)C(=O)C(N)=O)c1` [Compound 140, Methyl (S)-(3-(5-((4-amino-3,4-dioxo-1-phenylbutan-2-yl)carbamoyl)-3-methyl-1H-pyrazol-1-yl)benzyl)carbamate], for which the IC50 in assay [1] (read-out: SH-SY5Y + AMC IC50, Column E) was 10 to 25 µM; in assay [2] (Column B) it was less than 3 µM; in assay [3] (Column C), less than 3 µM; in assay [4] (Column A), less than 3 µM.
For the compound `Cn1cc(C(=O)N[C@@H](Cc2ccccc2)C(=O)C(N)=O)c(-c2cccc(OC(F)(F)F)c2)n1` [Compound 184, (S)—N-(4-amino-3,4-dioxo-1-phenylbutan-2-yl)-1-methyl-3-(3-(trifluoromethoxy)phenyl)-1H-pyrazole-4-carboxamide], the IC50 in assay [1] (setting [5]) was more than 25 µM; in assay [2] (Column B), less than 3 µM; in assay [3] (Column C), less than 3 µM; in assay [4] (Column A), less than 3 µM.
Take `Cc1cc(C(=O)N[C@@H](Cc2ccccc2)C(=O)C(=O)NC2CC2)n(-c2nc(-c3ccccc3)cs2)n1` [Compound 203, (S)—N-(4-(cyclopropylamino)-3,4-dioxo-1-phenylbutan-2-yl)-3-methyl-1-(4-phenylthiazol-2-yl)-1H-pyrazole-5-carboxamide]: the IC50 in assay [1] (setting [5]) is more than 25 µM; in assay [2] (Column B), less than 3 µM; in assay [3] (Column C), more than 10 µM; in assay [4] (Column A), less than 3 µM.
In the case of `Cn1cc(C(=O)NC(Cc2ccccc2)C(=O)C(N)=O)c(-c2ccc3c(c2)OCCCO3)n1` (stereo not shown) [Compound 625, N-(4-amino-3,4-dioxo-1-phenylbutan-2-yl)-3-(3,4-dihydro-2H-benzo[b][1,4]dioxepin-7-yl)-1-methyl-1H-pyrazole-4-carboxamide], the IC50 in assay [2], in assay [3] and in assay [4] was less than 3 µM each time.
Consider `Cn1cc(-c2nn(C)cc2C(=O)NC(Cc2ccccc2)C(=O)C(N)=O)cn1` (stereo not shown) [Compound 626, N-(4-amino-3,4-dioxo-1-phenylbutan-2-yl)-1,1′-dimethyl-1H,1′H-[3,4′-bipyrazole]-4-carboxamide], for which the IC50 in assay [2], in assay [3] and in assay [4] was less than 3 µM in each case.
Consider `Cn1cc(C(=O)NC(Cc2ccccc2)C(=O)C(N)=O)c(C2CCOC2)n1` (stereo not shown) [Compound 627, N-(4-amino-3,4-dioxo-1-phenylbutan-2-yl)-1-methyl-3-(tetrahydrofuran-3-yl)-1H-pyrazole-4-carboxamide], for which the values for the IC50 in assay [2], in assay [3] and in assay [4] were less than 3 µM, 3 to 10 µM and 3 to 10 µM, respectively.
Take `Cn1cc(C(=O)NC(Cc2ccccc2)C(=O)C(N)=O)c(-c2coc3ccccc23)n1` (stereo not shown) [Compound 628, N-(4-amino-3,4-dioxo-1-phenylbutan-2-yl)-3-(benzofuran-3-yl)-1-methyl-1H-pyrazole-4-carboxamide]: the IC50 in assay [2], in assay [3] and in assay [4] was less than 3 µM each time.
On to `NC(=O)C(=O)C(Cc1ccccc1)NC(=O)c1cn(C(F)F)nc1-c1ccc2ccncc2c1` (stereo not shown) [Compound 630, N-(4-amino-3,4-dioxo-1-phenylbutan-2-yl)-1-(difluoromethyl)-3-(isoquinolin-7-yl)-1H-pyrazole-4-carboxamide], for which the IC50 in assay [2], in assay [3] and in assay [4] was less than 3 µM throughout.
Turning to `Cc1cc(C(=O)NC(Cc2ccccc2)C(=O)C(=O)NC2CC2)n(-c2ccncc2)n1` (stereo not shown) [compound 210], the IC50 in assay [2] (Column B), in assay [3] (Column C) and in assay [4] (Column A) was less than 3 µM in each case.
Consider “(S)—N-(4-amino-1-(3,5-dimethylphenyl)-3,4-dioxobutan-2-yl)-3-methyl-5-phenylisoxazole-4-carboxamide [Compound 98]”, for which the IC50 in assay [2] (Column B), in assay [3] (Column C) and in assay [4] (Column A) was less than 3 µM throughout.
Take “(S)—N-(4-amino-3,4-dioxo-1-phenylbutan-2-yl)-1-(tert-butyl)-3-methyl-1H-pyrazole-5-carboxamide [Compound 310]”: the results for the IC50 in assay [2], in assay [3] and in assay [4] were less than 3 µM, 3 to 10 µM and less than 3 µM, respectively.
On to “(S)—N-(4-amino-3,4-dioxo-1-phenylbutan-2-yl)-4-chloro-1-ethyl-3-methyl-1H-pyrazole-5-carboxamide [Compound 312]”, for which the figures for the IC50 in assay [2], in assay [3] and in assay [4] were less than 3 µM, 3 to 10 µM and less than 3 µM, respectively.
Take “N-(4-amino-3,4-dioxo-1-phenylbutan-2-yl)-3-(isoquinolin-3-yl)-1-methyl-1H-pyrazole-4-carboxamide [Compound 629]”: the IC50 in assay [2], in assay [3] and in assay [4] was less than 3 µM each time.
